Measured values: patent US11135237B2, “Lipophosphonoxins of second generation, and their use” (USTAV ORGANICKE CHEMIE A BIOCHEMIE AV CR, V.V.I., priority 2016, dated 2021)
Converted amounts (≈) assume the structure as drawn.

Assays:
Assay type in all cases: cell-based
[1] = system: E. faecium VanA 419ana; assay: MIC, microdilution method, resistant strains; conditions: Enterococcus faecium, VANA419ANA; vancomycin-resistant strain, clinical isolate
Procedure: (§1) Antibacterial activity was measured using a standard microdilution method, showing the minimum inhibitory concentration (MIC) of the test sample which results in inhibition of bacterial growth. Disposable microtiter plates were used for the tests. Samples are dissolved in the brain-heart infusion broth (HiMedia Laboraties Pvt. Ltd., Czech Republic), and Mueller Hinton broth (HiMedia Laboraties, see above) at a final concentration ranging from 200 μg/ml to 1.5625 μg/ml. Plates were inoculated with a standard amount of test bacteria—inoculum density in the hole corresponds to 10^5-6 CFU/ml (colony forming units/ml). MIC values are read after 24/48 hours of incubation at 37° C. as the minimum inhibitory concentration of the test substance at which the growth of bacteria is inhibited. Minimal bactericidal concentration (MBC) is defined as the minimum concentration of the sample needed to achieve irreversible inhibition, therefore killing the bacteria after a defined time of incubation. The MBC was determined by inoculation method. 10 μl from the wells in a microplate with a defined concentration of test substance is taken with an applicator, and inoculated onto the surface of blood agar (Trios, Czech Republic) and Sabouraud agar (Trios, CR). The MBC was determined as the lowest concentration that inhibited visible growth of the bacteria used.

[2] = system: S. haemolyticus 16568; assay: MIC, microdilution method, resistant strains; conditions: Staphylococcus haemolyticus, fluoroquinolone-resistant strain, clinical isolate
Procedure: as §1

[3] = system: P. aeruginosa 16575; assay: MIC, microdilution method, resistant strains; conditions: Pseudomonas aeruginosa, resistant strain, clinical isolate
Procedure: as §1

[4] = system: S. epidermidis 8700B; assay: MIC, microdilution method, resistant strains; conditions: Staphylococcus epidermidis, methicilin-resistant strain, clinical isolate
Procedure: as §1

[5] = system: E. coli 16702; assay: MIC, microdilution method, resistant strains; conditions: Escherichia coli, resistant strain, clinical isolate
Procedure: as §1

[6] = system: S. aureus MRSA 4591; assay: MIC, microdilution method, resistant strains; conditions: Staphylococcus aureus, methicillin-resistant strain, clinical isolate
Procedure: as §1

[7] = system: Staphylococcus aureus CCM 4223; assay: MIC, microdilution method, reference strains; conditions: CCM4223, read after 24/48 hours of incubation at 37° C.
Procedure: as §1, with “bacteria-inoculum” for “bacteria—inoculum”, “used. Standard reference bacterial strains (Escherichia coli CCM 3954, Pseudomonas aeruginosa CCM 3955, Enterococcus faecalis CCM 4224, Staphylococcus aureus CCM 4223) were obtained from the Czech Collection of Microorganisms (CCM) at […] University in Brno. Streptococcus agalactiae, Bacillus subtilis were obtained from the University Hospital Olomouc. The tested microorganisms were maintained in cryobanks (ITEST plus, Czech Republic) at -80° C.” for “used.”

[8] = system: Enterococcus faecalis CCM 4224; assay: MIC, microdilution method, reference strains; conditions: CCM4224, read after 24/48 hours of incubation at 37° C.
Procedure: as §1, with “bacteria-inoculum” for “bacteria—inoculum”, “used. Standard reference bacterial strains (Escherichia coli CCM 3954, Pseudomonas aeruginosa CCM 3955, Enterococcus faecalis CCM 4224, Staphylococcus aureus CCM 4223) were obtained from the Czech Collection of Microorganisms (CCM) at […] University in Brno. Streptococcus agalactiae, Bacillus subtilis were obtained from the University Hospital Olomouc. The tested microorganisms were maintained in cryobanks (ITEST plus, Czech Republic) at -80° C.” for “used.”

[9] = system: Streptococcus agalactiae; assay: MIC, microdilution method, reference strains; conditions: read after 24/48 hours of incubation at 37° C.
Procedure: as §1, with “bacteria-inoculum” for “bacteria—inoculum”, “used. Standard reference bacterial strains (Escherichia coli CCM 3954, Pseudomonas aeruginosa CCM 3955, Enterococcus faecalis CCM 4224, Staphylococcus aureus CCM 4223) were obtained from the Czech Collection of Microorganisms (CCM) at […] University in Brno. Streptococcus agalactiae, Bacillus subtilis were obtained from the University Hospital Olomouc. The tested microorganisms were maintained in cryobanks (ITEST plus, Czech Republic) at -80° C.” for “used.”

[10] = system: Pseudomonas aeruginosa CCM 3955; assay: MIC, microdilution method, reference strains; conditions: CCM3955, read after 24/48 hours of incubation at 37° C.
Procedure: as §1, with “bacteria-inoculum” for “bacteria—inoculum”, “used. Standard reference bacterial strains (Escherichia coli CCM 3954, Pseudomonas aeruginosa CCM 3955, Enterococcus faecalis CCM 4224, Staphylococcus aureus CCM 4223) were obtained from the Czech Collection of Microorganisms (CCM) at […] University in Brno. Streptococcus agalactiae, Bacillus subtilis were obtained from the University Hospital Olomouc. The tested microorganisms were maintained in cryobanks (ITEST plus, Czech Republic) at -80° C.” for “used.”

[11] = system: Escherichia coli CCM 3954; assay: MIC, microdilution method, reference strains; conditions: CCM3954, read after 24/48 hours of incubation at 37° C.
Procedure: as §1, with “bacteria-inoculum” for “bacteria—inoculum”, “used. Standard reference bacterial strains (Escherichia coli CCM 3954, Pseudomonas aeruginosa CCM 3955, Enterococcus faecalis CCM 4224, Staphylococcus aureus CCM 4223) were obtained from the Czech Collection of Microorganisms (CCM) at […] University in Brno. Streptococcus agalactiae, Bacillus subtilis were obtained from the University Hospital Olomouc. The tested microorganisms were maintained in cryobanks (ITEST plus, Czech Republic) at -80° C.” for “used.”

[12] = system: Bacillus subtilis; assay: MIC, microdilution method, reference strains; conditions: read after 24/48 hours of incubation at 37° C.
Procedure: as §1, with “bacteria-inoculum” for “bacteria—inoculum”, “used. Standard reference bacterial strains (Escherichia coli CCM 3954, Pseudomonas aeruginosa CCM 3955, Enterococcus faecalis CCM 4224, Staphylococcus aureus CCM 4223) were obtained from the Czech Collection of Microorganisms (CCM) at […] University in Brno. Streptococcus agalactiae, Bacillus subtilis were obtained from the University Hospital Olomouc. The tested microorganisms were maintained in cryobanks (ITEST plus, Czech Republic) at -80° C.” for “used.”

[13] = system: Salmonella Enteritidis S2-25; assay: MIC, microdilution method; conditions: Salmonella enterica, read after 24/48 hours of incubation at 37° C.
Procedure: as §1

[14] = system: Stenotrophomonas matophilia S2-23; assay: MIC, microdilution method; conditions: S223, read after 24/48 hours of incubation at 37° C.
Procedure: as §1

[15] = system: Burkholderia multivorans ATCC BAA-247; assay: MIC, microdilution method; conditions: ATCCBAA247, read after 24/48 hours of incubation at 37° C.
Procedure: as §1

[16] = system: Acinetobacter baumanii A3-08; assay: MIC, microdilution method; conditions: Acinetobacter baumannii, A308; read after 24/48 hours of incubation at 37° C.
Procedure: as §1

SMILES | MIC [1] [µg/mL] | MIC [2] [µg/mL] | MIC [3] [µg/mL] | MIC [4] [µg/mL] | MIC [5] [µg/mL] | MIC [6] [µg/mL] | MIC [7] [µg/mL] | MIC [8] [µg/mL] | MIC [9] [µg/mL] | MIC [10] [µg/mL] | MIC [11] [µg/mL] | MIC [12] [µg/mL] | MIC [13] [µg/mL] | MIC [14] [µg/mL] | MIC [15] [µg/mL] | MIC [16] [µg/mL]
CCCCCCCCCCCCCCCCOP(=O)(CCN(CCCN)CCCN)OC[C@H]1O[C@@H](n2ccc(=O)[nH]c2=O)C(O)C1O (stereo partly shown) [Example 1, Hexadecyl-uridine-5′-yl-2-N-bis (3-aminopropyl)-2-aminoethyl phosphonate] | 25 (≈ 36.2 µM) | 3.12 (≈ 4.53 µM) | 3.12 (≈ 4.53 µM) | 3.12 (≈ 4.53 µM) | 3.12 (≈ 4.53 µM) | 25 (≈ 36.2 µM) | 12.5 (≈ 18.1 µM) | 50 (≈ 72.5 µM) | 3.12 (≈ 4.53 µM) | 6.25 (≈ 9.06 µM) | 3.12 (≈ 4.53 µM) | 0.78 (≈ 1.13 µM) | – | – | – | –
CCCCCCCCCCCCCCCOP(=O)(CCN(CCCN)CCCN)OC[C@H]1O[C@@H](n2ccc(=O)[nH]c2=O)C(O)C1O (stereo partly shown) [Example 2, Pentadecyl-uridine-5′-yl-2-N-bis(3-aminopropyl)-2-aminoethyl phosphonate] | 25 (≈ 37 µM) | 3.12 (≈ 4.62 µM) | 3.12 (≈ 4.62 µM) | 6.25 (≈ 9.25 µM) | 6.25 (≈ 9.25 µM) | 12.5 (≈ 18.5 µM) | 6.25 (≈ 9.25 µM) | 50 (≈ 74 µM) | 3.12 (≈ 4.62 µM) | 3.12 (≈ 4.62 µM) | 6.25 (≈ 9.25 µM) | 1.56 (≈ 2.31 µM) | 3.12 (≈ 4.62 µM) | 3.12 (≈ 4.62 µM) | 12.5 (≈ 18.5 µM) | 6.25 (≈ 9.25 µM)
CCCCCCCCCCCCCOP(=O)(CCN(CCCN)CCCN)OC[C@H]1O[C@@H](n2ccc(=O)[nH]c2=O)C(O)C1O (stereo partly shown) [Example 4, Tridecyl-uridine-5′-yl-2-N-bis (3-aminopropyl)-2-aminoethyl phosphonate] | 100 (≈ 154 µM) | 6.25 (≈ 9.65 µM) | 25 (≈ 38.6 µM) | 12.5 (≈ 19.3 µM) | 50 (≈ 77.2 µM) | 25 (≈ 38.6 µM) | 12.5 (≈ 19.3 µM) | 50 (≈ 77.2 µM) | 6.25 (≈ 9.65 µM) | 3.12 (≈ 4.82 µM) | 25 (≈ 38.6 µM) | 3.12 (≈ 4.82 µM) | 50 (≈ 77.2 µM) | 50 (≈ 77.2 µM) | 50 (≈ 77.2 µM) | 50 (≈ 77.2 µM)
CCCCCCCCCCCCOP(=O)(CCN(CCCN)CCCN)OC[C@H]1O[C@@H](n2ccc(=O)[nH]c2=O)C(O)C1O (stereo partly shown) [Example 5, Dodecyl-uridine-5′-yl-2-N-bis (3-aminopropyl)-2-aminoethyl phosphonate] | 200 (≈ 316 µM) | 12.5 (≈ 19.7 µM) | 12.5 (≈ 19.7 µM) | 12.5 (≈ 19.7 µM) | 25 (≈ 39.4 µM) | 50 (≈ 78.9 µM) | 25 (≈ 39.4 µM) | 100 (≈ 158 µM) | 12.5 (≈ 19.7 µM) | 3.12 (≈ 4.93 µM) | 25 (≈ 39.4 µM) | 3.12 (≈ 4.93 µM) | – | – | – | –
CCCCCCCCCCCCCCCOP(=O)(CCN(CCN)CCN)OC[C@H]1O[C@@H](n2ccc(=O)[nH]c2=O)C(O)C1O (stereo partly shown) [Example 6, Pentadecyl-uridine-5′-yl-2-N-bis(3-aminoethyl)-2-aminoethyl phosphonate] | 100 (≈ 154 µM) | 1.56 (≈ 2.41 µM) | 1.56 (≈ 2.41 µM) | 1.56 (≈ 2.41 µM) | 1.56 (≈ 2.41 µM) | 6.25 (≈ 9.65 µM) | 6.25 (≈ 9.65 µM) | 12.5 (≈ 19.3 µM) | 3.12 (≈ 4.82 µM) | 1.56 (≈ 2.41 µM) | 1.56 (≈ 2.41 µM) | 0.78 (≈ 1.2 µM) | – | – | – | –
CCCCCCCCCCCCCCOP(=O)(CCN(CCN)CCN)OC[C@H]1O[C@@H](n2ccc(=O)[nH]c2=O)C(O)C1O (stereo partly shown) [Example 7, Tetradecyl-uridine-5′-yl-2-N-bis(3-aminoethyl)-2-aminoethyl phosphonate] | 100 (≈ 158 µM) | 3.12 (≈ 4.93 µM) | 6.25 (≈ 9.86 µM) | 3.12 (≈ 4.93 µM) | 6.25 (≈ 9.86 µM) | 12.5 (≈ 19.7 µM) | 25 (≈ 39.4 µM) | 100 (≈ 158 µM) | 6.25 (≈ 9.86 µM) | 3.12 (≈ 4.93 µM) | 12.5 (≈ 19.7 µM) | 6.25 (≈ 9.86 µM) | 12.5 (≈ 19.7 µM) | 6.25 (≈ 9.86 µM) | 12.5 (≈ 19.7 µM) | 25 (≈ 39.4 µM)
CCCCCCCCCCCCCCCOP(=O)(CCN(CCCNC(=N)N)CCCNC(=N)N)OC[C@H]1O[C@@H](n2ccc(=O)[nH]c2=O)C(O)C1O (stereo partly shown) [Example 8] | 50 (≈ 65.8 µM) | 1.56 (≈ 2.05 µM) | 1.56 (≈ 2.05 µM) | 1.56 (≈ 2.05 µM) | 0.78 (≈ 1.03 µM) | 3.12 (≈ 4.11 µM) | 3.12 (≈ 4.11 µM) | 25 (≈ 32.9 µM) | 1.56 (≈ 2.05 µM) | 0.78 (≈ 1.03 µM) | 0.78 (≈ 1.03 µM) | 0.39 (≈ 0.513 µM) | 1.56 (≈ 2.05 µM) | 3.12 (≈ 4.11 µM) | 100 (≈ 132 µM) | 6.25 (≈ 8.22 µM)
CCCCCCCCCCCCCCOP(=O)(CCN1CCC(N)C1)OC[C@H]1O[C@@H](n2ccc(=O)[nH]c2=O)C(O)C1O (stereo partly shown) [Example 10, Tetradecyl-uridine-5′-yl-(3-aminopyrrolidin-1-N-yl) ethyl phosphonate] | 50 (≈ 81.1 µM) | 6.25 (≈ 10.1 µM) | 3.12 (≈ 5.07 µM) | 3.12 (≈ 5.07 µM) | 3.12 (≈ 5.07 µM) | 25 (≈ 40.5 µM) | 12.5 (≈ 20.3 µM) | 6.25 (≈ 10.1 µM) | 3.12 (≈ 5.07 µM) | 3.12 (≈ 5.07 µM) | 3.12 (≈ 5.07 µM) | 1.56 (≈ 2.53 µM) | – | – | – | –
